Assay results taken from patent US11236047B2 (ASTEX THERAPEUTICS LIMITED, priority 2017, dated 2022).

Tested on: SJSA-1 cells
Assay: Protocol B: SJSA-1 CellTiter-Glo luminescent cell viability assay
Conditions: Homo sapiens, SJSA-1, read-out: SJSA1 IC50 (μM) (Protocol B), SJSA-1, Protocol B

Point of comparison: `Cn1cc(C(C)(O)c2cc(F)c3c(c2)C(=O)N(Cc2ccc(Cl)cn2)[C@@]3(OCCO)c2ccc(Cl)cc2)cn1` (stereo partly drawn) [Example 213, (3R)-3-(4-chlorophenyl)-2-[(5-chloropyridin-2-yl)methyl]-4-fluoro-6-[1-hydroxy-1-(1-methyl-1H-pyrazol-4-yl)ethyl]-3-(2-hydroxyethoxy)-2,3-dihydro-1H-isoindol-1-one], IC50 0.25 µM. Against it:
- CC(O)(c1cc(F)c2c(c1)C(=O)N(Cc1ncc(Cl)cn1)[C@@]2(OCC1(O)CC1)c1ccc(Cl)cc1)C1CCS(=O)(=O)CC1 (single isomer, unassigned) [Example 397] — 10-fold higher, 2.5 µM
- CO[C@]1(c2ccc(Cl)cc2)c2c(F)cc(C(C)(O)c3cnn(C4CN(C(C)=O)C4)c3)cc2C(=O)N1Cc1ccc(Cl)cn1 (stereo partly drawn) [Example 182, (3R)-6-{1-[1-(1-Acetylazetidin-3-yl)-1H-pyrazol-4-yl]-1-hydroxyethyl}-3-(4-chlorophenyl)-2-[(5-chloropyridin-2-yl)methyl]-4-fluoro-3-methoxy-2,3-dihydro-1H-isoindol-1-one] — 3.5-fold higher, 0.88 µM
- CO[C@]1(c2ccc(Cl)cc2)c2c(F)cc(C(C)(O)c3cnn(CCN(C)C)c3)cc2C(=O)N1Cc1ccc(Cl)cn1 (stereo partly drawn) [Example 191, (3R)-3-(4-Chlorophenyl)-2-[(5-chloropyridin-2-yl)methyl]-6-(1-{1-[2-(dimethylamino)ethyl]-1H-pyrazol-4-yl}-1-hydroxyethyl)-4-fluoro-3-methoxy-2,3-dihydro-1H-isoindol-1-one] — 10-fold higher, 2.5 µM
- Cn1cc(C(C)(O)c2cc(F)c3c(c2)C(=O)N(Cc2ccc(F)cn2)[C@@]3(OCC2(C(N)=O)CC2)c2ccc(Cl)cc2)cn1 (stereo partly drawn) [Example 209, 1-({[(1R)-1-(4-chlorophenyl)-7-fluoro-2-[(5-fluoropyridin-2-yl)methyl]-5-[1-hydroxy-1-(1-methyl-1H-pyrazol-4-yl)ethyl]-3-oxo-2,3-dihydro-1H-isoindol-1-yl]oxy}methyl)cyclopropane-1-carboxamide] — 1.8-fold higher, 0.45 µM
- Cn1cc(C(C)(O)c2cc(F)c3c(c2)C(=O)N(Cc2ccc(C#N)cn2)[C@@]3(OCC2(C#N)CC2)c2ccc(Cl)cc2)cn1 (stereo partly drawn) [Example 211, 6-{[(1R)-1-(4-chlorophenyl)-1-[(1-cyanocyclopropyl)methoxy]-7-fluoro-5-[1-hydroxy-1-(1-methyl-1H-pyrazol-4-yl)ethyl]-3-oxo-2,3-dihydro-1H-isoindol-2-yl]methyl}pyridine-3-carbonitrile] — within 1.5-fold, 0.36 µM
- Cn1cc(C(C)(O)c2cc(F)c3c(c2)C(=O)N(Cc2ncc(Cl)cn2)[C@@]3(OCC2(C(N)=O)CC2)c2ccc(Cl)cc2)cn1 (stereo partly drawn) [Example 214, 1-({[(1R)-1-(4-chlorophenyl)-2-[(5-chloropyrimidin-2-yl)methyl]-7-fluoro-5-[1-hydroxy-1-(1-methyl-1H-pyrazol-4-yl)ethyl]-3-oxo-2,3-dihydro-1H-isoindol-1-yl]oxy}methyl)cyclopropane-1-carboxamide] — within 1.5-fold, 0.22 µM
- COc1ccc(CN2C(=O)c3cc(C(C)(O)c4cnn(C)c4)cc(F)c3[C@]2(OCC2(C(N)=O)CC2)c2ccc(Cl)cc2)cn1 (stereo partly drawn) [Example 216, 1-({[(1R)-1-(4-chlorophenyl)-7-fluoro-5-[1-hydroxy-1-(1-methyl-1H-pyrazol-4-yl)ethyl]-2-[(6-methoxypyridin-3-yl)methyl]-3-oxo-2,3-dihydro-1H-isoindol-1-yl]oxy}methyl)cyclopropane-1-carboxamide] — within 1.5-fold, 0.28 µM
- CC(O)(c1cc(F)c2c(c1)C(=O)N(Cc1ccc(C#N)cn1)[C@@]2(OCC1(C#N)CC1)c1ccc(Cl)cc1)C1CCOCC1 (stereo partly drawn) [Example 282, 6-{[(1R)-1-(4-chlorophenyl)-1-[(1-cyanocyclopropyl)methoxy]-7-fluoro-5-[1-hydroxy-1-(oxan-4-yl)ethyl]-3-oxo-2,3-dihydro-1H-isoindol-2-yl]methyl}pyridine-3-carbonitrile] — 4.1-fold lower, 0.061 µM
- CC(O)(c1cc(F)c2c(c1)C(=O)N(Cc1ncc(Cl)cn1)[C@@]2(OCC1(C(N)=O)CC1)c1ccc(Cl)cc1)C1CCOCC1 (stereo partly drawn) [Example 284, 1-({[(1R)-1-(4-chlorophenyl)-2-[(5-chloropyrimidin-2-yl)methyl]-7-fluoro-5-[1-hydroxy-1-(oxan-4-yl)ethyl]-3-oxo-2,3-dihydro-1H-isoindol-1-yl]oxy}methyl)cyclopropane-1-carboxamide] — 15-fold lower, 0.017 µM

Same assay, conditions: read-out: SJSA1 IC50 (μM) (Protocol B); SJSA-1, Protocol B

Point of comparison: `CO[C@]1(c2ccc(Cl)cc2)c2c(F)cc(C(C)(O)c3cn(C)c(C)n3)cc2C(=O)N1Cc1ccc(Cl)cn1` (stereo partly drawn) [Example 161, (3R)-3-(4-Chlorophenyl)-2-[(5-chloropyridin-2-yl)methyl]-6-[1-(1,2-dimethyl-1H-imidazol-4-yl)-1-hydroxyethyl]-4-fluoro-3-methoxy-2,3-dihydro-1H-isoindol-1-one], IC50 4.3 µM. Against it:
- CC(O)(c1cc(F)c2c(c1)C(=O)N(Cc1ncc(Cl)cn1)[C@@]2(OCC1(C(N)=O)CC1)c1ccc(Cl)cc1)C1CCC1 (single isomer, unassigned) [Example 403] — 3.6-fold lower, 1.2 µM
- CC(O)(c1cc(F)c2c(c1)C(=O)N(Cc1ncc(Cl)cn1)[C@@]2(OCC1(C(N)=O)CC1)c1ccc(Cl)cc1)C1CCC1 (single isomer, unassigned) [Example 404] — 45-fold lower, 0.095 µM
- CC(O)(c1cc(F)c2c(c1)C(=O)N(Cc1ccc(C#N)cn1)[C@@]2(OCCO)c1ccc(Cl)cc1)C1CCC1 (single isomer, unassigned) [Example 405] — 6.8-fold lower, 0.63 µM
- CC(O)(c1cc(F)c2c(c1)C(=O)N(Cc1ccc(C#N)cn1)[C@@]2(OCCO)c1ccc(Cl)cc1)C1CCC1 (single isomer, unassigned) [Example 406] — within 1.5-fold, 3.9 µM
- CO[C@]1(c2ccc(Cl)cc2)c2c(F)cc(C(C)(O)c3cnn(CCN(C)C)c3)cc2C(=O)N1Cc1ccc(Cl)cn1 (stereo partly drawn) [Example 192, (3R)-3-(4-Chlorophenyl)-2-[(5-chloropyridin-2-yl)methyl]-6-(1-{1-[2-(dimethylamino)ethyl]-1H-pyrazol-4-yl}-1-hydroxyethyl)-4-fluoro-3-methoxy-2,3-dihydro-1H-isoindol-1-one] — 3.1-fold lower, 1.4 µM
- COc1ccc(CN2C(=O)c3cc(C(C)(O)c4cnn(C)c4)cc(F)c3[C@]2(OCC2(CO)CC2)c2ccc(Cl)cc2)cn1 (stereo partly drawn) [Example 219, (3R)-3-(4-chlorophenyl)-4-fluoro-6-[1-hydroxy-1-(1-methyl-1H-pyrazol-4-yl)ethyl]-3-{[1-(hydroxymethyl)cyclopropyl]methoxy}-2-[(6-methoxypyridin-3-yl)methyl]-2,3-dihydro-1H-isoindol-1-one] — 39-fold lower, 0.11 µM
- COc1ccc(CN2C(=O)c3cc(C(C)(O)c4cnn(C)c4)cc(F)c3[C@]2(OCC2(CO)CC2)c2ccc(Cl)cc2)nc1 (stereo partly drawn) [Example 224, (3R)-3-(4-chlorophenyl)-4-fluoro-6-[1-hydroxy-1-(1-methyl-1H-pyrazol-4-yl)ethyl]-3-{[1-(hydroxymethyl)cyclopropyl]methoxy}-2-[(5-methoxypyridin-2-yl)methyl]-2,3-dihydro-1H-isoindol-1-one] — 36-fold lower, 0.12 µM

Same assay, conditions: read-out: SJSA1 IC50; Protocol B, SJSA-1

Point of comparison: `CCC(O)(c1cc(F)c2c(c1)C(=O)N(Cc1ncc(C#N)cn1)[C@@]2(OC[C@H]1C[C@H](O)C1)c1ccc(Cl)cc1)c1cn(C)cn1` (single isomer, unassigned) [Example 484], IC50 4.9 µM. Against it:
- CCC(O)(CN1CCN(C)CC1)c1cc(F)c2c(c1)C(=O)N(Cc1ncc(Cl)cn1)[C@@]2(OCCO)c1ccc(Cl)cc1 (single isomer, unassigned) [Example 532] — 35-fold lower, 0.14 µM
- CCC(O)(CN1CCNCC1)c1cc(F)c2c(c1)C(=O)N(Cc1ncc(Cl)cn1)[C@@]2(OCC1(C#N)CC1)c1ccc(Cl)cc1 (single isomer, unassigned) [Example 537] — 6.4-fold lower, 0.76 µM
